Experiments:
[1] = tested on: HBV (genotype D, serotype ayw, Galibert's strain); test: Quantification of virion associated secreted HBV DNA in supernatant of HBV-infected Primary Human Hepatocytes (PHH) by qPCR, % of replication vs DMSO; type: cell-based, hepatitis B virus; settings: 1 μM compound, 7 days treatment, DMSO = 100%; for activity at 1 µM: Hepatitis B virus, Hepatocyte, 168 h, (*) n = 1, read-out: PHH HBV % of replication at 1 μM compared to DMSO
Protocol: (§1) From Methods in Lucifora J. et al. (Direct antiviral properties of TLR ligands against HBV replication in immune-competent hepatocytes, Science Scientific Reports, 2018, 8:5390): • 1) HepaRG cells were cultured, as described previously by Gripon P. et al. (Infection of a human hepatoma cell line by hepatitis B virus. Proc Natl Acad Sci USA, 2002, 99, p 15655-15660) on pages 15655 and 15656, in Williams E medium supplemented with 10% fetal calf serum, 50 U penicillin/streptomycin (Gibco-Invitrogen) ml^−1, […] ml^−1 and 5×10^−7 M hydrocortisone hemisuccinate (Roche Diagnostics and Boehringer Mannheim, respectively). The cell cultures were maintained in a 5% CO2 atmosphere at 37° C. During the proliferation phase, culture medium was renewed every 2 days. For differentiation and infection, cells were maintained for 2 weeks in standard medium and then for at least 2 more weeks in medium supplemented with 1.8-2.0% DMSO (Sigma). • 2) Primary Human Hepatocytes (PHH) were freshly prepared from human liver resection as previously described by Lecluyse, E. L. & Alexandre, E. (Isolation and culture of primary hepatocytes from resected human liver tissue. Methods Mol Biol, 2010, 640, p 57-82, https://doi.org/10.1007/978-1-60761-688-7_3) on page 63 paragraph 3. “Methods” from section 3.1. through 3.6.2. page 77. All experimental procedures were conducted in conformity with French laws and regulations and were approved by the National Ethics Committee. • 3) Cell viability was measured by both neutral red and MTS (CellTiter 96 Aqueous One Solution cell proliferation assay; Promega) tests. • 4) HBV inoculum (genotype D, serotype ayw, Galibert's strain referred as NC_003977.2 at NCBI) was prepared from HepAD38 (see Ladner, S. K. et al., Inducible expression of human hepatitis B virus (HBV) in stably transfected hepatoblastoma cells: a novel system for screening potential inhibitors of HBV replication. Antimicrob Agents Chemother, 1997, 41, p 1715-1720) supernatants by polyethylene-glycol-MW-8000 (PEG8000, SIGMA) precipitation (8% final) as previously described by Luangsay, S. et al. (Early inhibition of hepatocyte innate responses by hepatitis B virus. J Hepatol, 2015, 63, p 1314-1322, https://doi.org/10.1016/j.jhep.2015.07.014).
(§2) Viral stocks with titer reaching at least 1×10^10 viral genome equivalent (vge)/mL were tested endotoxin free.
(§3) Differentiated HepaRG (dHepaRG) or PHH were infected by HBV at a multiplicity of infection of 100-200 vge/cell in culture medium containing 4% PEG 8000 (Sigma) for 16 h at 37° C. in 12- or six-well plates. At the end of the incubation period, cells were washed once with medium and then cultured in Williams E medium containing DMSO as indicated. In general infection was left for 7 days before any treatment was started, to allow replication reaching its maximum. • 5) Infected cell treatment with compounds of interest: • 5a: After 7 days of infection with the virus (day 0 to day 7), the dHepaRG cells were treated (3 treatments: day 7, day 10 and day 12) with a […] of the tested compound (diluted with sterile water from a 10 mM stock DMSO solution) or DMSO as reference negative control for 7 more days. • 5b: After 4 days of infection with the virus (day 0 to day 4), the PHH cells were treated (3 treatments: day 4, day 7 and day 9) with a […] of the tested compound (diluted with sterile water from a 10 mM stock DMSO solution) for 7 more days. • 6) Quantification of virion associated secreted HBV DNA in cell culture supernatant:
(§4) At the end of the experiment (7 days treatment) the supernatant of infected and treated cells (either dHepaRG or PHH or others) is collected. It is diluted 1/4 into sterile water (molecular biology quality) then treated for 30 minutes with RNAse (10 unit) and DNAse (10 unit) to remove non encapsidated material. […]

[2] = tested on: HBV (genotype D, serotype ayw, Galibert's strain); test: Quantification of virion associated secreted HBV DNA in supernatant of HBV-infected differentiated HepaRG (dHepaRG) cells by qPCR, % of replication vs DMSO; type: cell-based, hepatitis B virus; settings: 1 μM compound, 7 days treatment, DMSO = 100%; for activity at 1 µM: Hepatitis B virus, HepaRG, 168 h, read-out: dHepaRG HBV % of replication at 1 μM compared to DMSO
Protocol: as §1, §2, §3, §4

Structure (SMILES) | activity at 1 µM [1] [%] | activity at 1 µM [2] [%] | PHH HBV % of replication at 1 μM compared to DMSO ([1]; (*) n = 1) | dHepaRG HBV % of replication at 1 μM compared to DMSO [2]
CC(C)OC(=O)CC1COP(=O)(CO[C@H](C)Cn2cnc3c(N)ncnc32)OC1 (single isomer, unassigned) [Example 3a] | ≤ 30 | ≤ 30 | – | –
Nc1ncnc2c1ncn2CCOCP(=O)(O)O [ADF] | – | – | ++ (50% < ++ ≤ 80%) | ++ (50% < ++ ≤ 80%)
COC(=O)CC1COP(=O)(CO[C@H](C)Cn2cnc3c(N)ncnc32)OC1 (stereo partly drawn) [Example 1, (R)-methyl 2-(2-(((1-(6-amino-9H-purin-9-yl)propan-2-yl)oxy)methyl)-2-oxo-1,3,2-dioxaphosphinan-5-yl)acetate] | ≤ 30 | ≤ 30 | – | –
CCOC(=O)CC1COP(=O)(CO[C@H](C)Cn2cnc3c(N)ncnc32)OC1 (stereo partly drawn) [Example 2, (R)-ethyl 2-(2-(((1-(6-amino-9H-purin-9-yl)propan-2-yl)oxy)methyl)-2-oxo-1,3,2-dioxaphosphinan-5-yl)acetate] | ≤ 30 | ≤ 30 | – | –
C[C@H](Cn1cnc2c(N)ncnc21)OCP1(=O)OCC(CC(=O)OC2CCCC2)CO1 (stereo partly drawn) [Example 5, (R)-cyclopentyl 2-(2-(((1-(6-amino-9H-purin-9-yl)propan-2-yl)oxy)methyl)-2-oxo-1,3,2-dioxaphosphinan-5-yl)acetate] | ≤ 30 | ≤ 30 | – | –
CCCCCCOC(=O)CC1COP(=O)(CO[C@H](C)Cn2cnc3c(N)ncnc32)OC1 (stereo partly drawn) [Example 5b, (R)-hexyl 2-(2-(((1-(6-amino-9H-purin-9-yl)propan-2-yl)oxy)methyl)-2-oxo-1,3,2-dioxaphosphinan-5-yl)acetate] | ≤ 30 | 30 to 50 | – | –
CC1COP(=O)(CO[C@H](C)Cn2cnc3c(N)ncnc32)OC1 (stereo partly drawn) [Example 5c, (R)-2-(((1-(6-amino-9H-purin-9-yl)propan-2-yl)oxy)methyl)-5-methyl-1,3,2-dioxaphosphinane 2-oxide] | 30 to 50 | > 80 | – | –
COC(=O)CCC1COP(=O)(CO[C@H](C)Cn2cnc3c(N)ncnc32)OC1 (stereo partly drawn) [Example 6, (R)-methyl 3-(2-(((1-(6-amino-9H-purin-9-yl)propan-2-yl)oxy)methyl)-2-oxido-1,3,2-dioxaphosphinan-5-yl)propanoate] | > 80 | 50 to 80 | – | –
CCOC(=O)CCC1COP(=O)(CO[C@H](C)Cn2cnc3c(N)ncnc32)OC1 (stereo partly drawn) [Example 7, (R)-ethyl 3-(2-(((1-(6-amino-9H-purin-9-yl)propan-2-yl)oxy)methyl)-2-oxo-1,3,2-dioxaphosphinan-5-yl)propanoate] | 50 to 80 | 50 to 80 | – | –
CC(C)OC(=O)CCC1COP(=O)(CO[C@H](C)Cn2cnc3c(N)ncnc32)OC1 (stereo partly drawn) [Example 8, (R)-isopropyl 3-(2-(((1-(6-amino-9H-purin-9-yl)propan-2-yl)oxy)methyl)-2-oxo-1,3,2-dioxaphosphinan-5-yl)propanoate] | 50 to 80 | 50 to 80 | – | –
C[C@H](Cn1cnc2c(N)ncnc21)OCP1(=O)OCC(CCC(=O)OC2CCCC2)CO1 (stereo partly drawn) [Example 10, (R)-cyclopentyl 3-(2-(((1-(6-amino-9H-purin-9-yl)propan-2-yl)oxy)methyl)-2-oxo-1,3,2-dioxaphosphinan-5-yl)propanoate] | ≤ 30 | 50 to 80 | – | –
CCOC(=O)CC1COP(=O)(CO[C@H](C)Cn2cnc3c(NC(C)=O)ncnc32)OC1 (stereo partly drawn) [Example 13, (R)-ethyl 2-(2-(((1-(6-acetamido-9H-purin-9-yl)propan-2-yl)oxy)methyl)-2-oxo-1,3,2-dioxaphosphinan-5-yl)acetate] | ≤ 30 | 50 to 80 | – | –
CCOC(=O)CC1COP(=O)(CO[C@H](C)Cn2cnc3c(N(C(C)=O)C(C)=O)ncnc32)OC1 (stereo partly drawn) [Example 14, (R)-ethyl 2-(2-(((1-(6-(N-acetylacetamido)-9H-purin-9-yl)propan-2-yl)oxy)methyl)-2-oxo-1,3,2-dioxaphosphinan-5-yl)acetate] | 50 to 80 | 50 to 80 | – | –
CCOC(=O)CC1COP(=O)(CO[C@H](C)Cn2cnc3c(NC(=O)CC)ncnc32)OC1 (stereo partly drawn) [Example 15, (R)-ethyl 2-(2-oxo-2-(((1-(6-propionamido-9H-purin-9-yl)propan-2-yl)oxy)methyl)-1,3,2-dioxaphosphinan-5-yl)acetate] | ≤ 30 | ≤ 30 | – | –
CCOC(=O)CC1COP(=O)(CO[C@H](C)Cn2cnc3c(NC(=O)C(C)C)ncnc32)OC1 (stereo partly drawn) [Example 16, (R)-ethyl 2-(2-(((1-(6-isobutyramido-9H-purin-9-yl)propan-2-yl)oxy)methyl)-2-oxo-1,3,2-dioxaphosphinan-5-yl)acetate] | ≤ 30 | ≤ 30 | – | –
CCOC(=O)CC1COP(=O)(CO[C@H](C)Cn2cnc3c(NC(=O)CC(C)C)ncnc32)OC1 (stereo partly drawn) [Example 17, (R)-ethyl 2-(2-(((1-(6-(3-methylbutanamido)-9H-purin-9-yl)propan-2-yl)oxy)methyl)-2-oxo-1,3,2-dioxaphosphinan-5-yl)acetate] | ≤ 30 | 30 to 50 | – | –
CCOC(=O)CC1COP(=O)(CO[C@H](C)Cn2cnc3c(NC(=O)c4ccccc4)ncnc32)OC1 (stereo partly drawn) [Example 19, (R)-ethyl 2-(2-(((1-(6-benzamido-9H-purin-9-yl)propan-2-yl)oxy)methyl)-2-oxo-1,3,2-dioxaphosphinan-5-yl)acetate] | ≤ 30 | ≤ 30 | – | –
CC(C)OC(=O)CC1COP(=O)(CO[C@H](C)Cn2cnc3c(NC(=O)C(C)C)ncnc32)OC1 (stereo partly drawn) [Example 21a, (R)-isopropyl 2-(2-(((1-(6-isobutyramido-9H-purin-9-yl)propan-2-yl)oxy)methyl)-2-oxido-1,3,2-dioxaphosphinan-5-yl)acetate] | ≤ 30 | ≤ 30 | – | –
CC(C)OC(=O)CCC1COP(=O)(CO[C@H](C)Cn2cnc3c(NC(=O)c4ccccc4)ncnc32)OC1 (stereo partly drawn) [Example 25, (R)-isopropyl 3-(2-(((1-(6-benzamido-9H-purin-9-yl)propan-2-yl)oxy)methyl)-2-oxo-1,3,2-dioxaphosphinan-5-yl)propanoate] | 50 to 80 | 50 to 80 | – | –
